Values of other authors, collected in patent publication US20250319028A1, “PHARMACEUTICAL FORMULATION COMPRISING TACROLIMUS, METHOD FOR THE PREPARATION THEREOF AND USE” (PHARMATHEN S.A., priority 2021, published 2025).

Columns and labels:
[1] = reported, patients

Compound: C=CC[C@@H]1/C=C(\C)C[C@H](C)C[C@H](OC)[C@H]2O[C@@](O)(C(=O)C(=O)N3CCCC[C@H]3C(=O)O[C@H](/C(C)=C/[C@@H]3CC[C@@H](O)[C@H](OC)C3)[C@H](C)[C@@H](O)CC1=O)[C@H](C)C[C@@H]2OC [Tacrolimus monohydrate]
- Solubility in ethanol (ethanol): freely soluble
- Solubility in heptane (heptane): practically insoluble
- Solubility in water (water): practically insoluble

Compound: C=CC[C@@H]1/C=C(\C)C[C@H](C)C[C@H](OC)[C@H]2O[C@@](O)(C(=O)C(=O)N3CCCC[C@H]3C(=O)O[C@H](/C(C)=C/[C@@H]3CC[C@@H](O)[C@H](OC)C3)[C@H](C)[C@@H](O)CC1=O)[C@H](C)C[C@@H]2OC [Tacrolimus]
- Overall incidence of drug-induced nephrotoxicity [1]: ≤ 44%
